{"source": "patent US20230416316A1", "about": "“ADP-RIBOSE BINDING PEPTIDES WITH ANTI-CANCER ACTIVITY AND USE THEREOF” (PearlsInMires Co., Ltd., priority 2021, published 2023)", "assay_type_in_all_cases": "cell-based", "key": {"[1]": {"system": "MDA-MB-231 cells", "assay": "Viability of MDA-MB-231 cells, docetaxel alone or combined with peptides", "settings": "50 μM docetaxel alone, 24 hours", "protocol": "(§1) After culturing 3×10^3 MDA-MB-231 cells in a 96-well plate for 24 hours under conditions of 37° C. and 5% CO2, the cells were treated with 50 μM docetaxel alone or in combination with the peptides of Examples 15 to 28 at a concentration of 0.2, 1 or 8 μM. Then, the cells were cultured for 24 hours under conditions of 37° C. and 5% CO2, 10 μl of 3-(4,5-dimethylthiazol-2-yl)-2,5-diphenyltetrazolium bromide reagent was added to each well, followed by reaction for 1 hour. After the reaction was completed, the reagent was removed, 200 μl of dimethyl sulfoxide was added to each well, and the absorbance was measured to confirm cell viability."}, "[2]": {"system": "Aspc-1 cells", "assay": "Viability of Aspc-1 cells, gemcitabine alone or combined with peptides", "settings": "1 nM gemcitabine alone, 24 hours", "protocol": "as §1, with “culturing 3×10^3 Aspc-1 cells in” for “culturing 3×10^3 MDA-MB-231 cells in”, “treated with 1 nM gemcitabine alone or” for “treated with 50 μM docetaxel alone or”, “5% CO2, and 10 μl” for “5% CO2, 10 μl”"}, "[3]": {"system": "H1975 cells", "assay": "Viability of H1975 cells, osimertinib alone or combined with peptides", "settings": "Homo sapiens, NCI-H1975, 1 nM osimertinib alone, 24 hours, read-out: viable cancer cells", "protocol": "as §1, with “culturing 3×10^3 H1975 cells in” for “culturing 3×10^3 MDA-MB-231 cells in”, “treated with 1 nM osimertinib alone or” for “treated with 50 μM docetaxel alone or”, “of Examples 1 to 14” for “of Examples 15 to 28”, “1 to 14 at a” for “15 to 28 at a”, “5% CO2, and 10 μl” for “5% CO2, 10 μl”"}, "[4]": {"system": "MDA-MB-231 cells", "assay": "ADP-ribose level by ELISA in MDA-MB-231 cells", "settings": "0.2-32 μM peptide, 24 hours", "protocol": "(§2) The peptides of Examples 1 to 28 of the present disclosure are designed to inhibit the action of poly ADP-ribose degradation enzyme. In Experimental Example 1, it was confirmed through cell experiments whether poly ADP-ribose was inhibited from being degraded by each of the peptides and accumulated in cancer cells.\n5×10^3 MDA-MB-231 cells were divided into a group not treated with the Example peptide and a group treated with 0.2, 1, 2, 4, 8, 16, and 32 μM of the peptide of Example 5 (SEQ ID NO: 5), and cultured for 24 hours under conditions of 37° C. and 5% CO2 in Leibovitz's L-15 medium supplemented with 10% FBS, 100 units/ml penicillin, and 100 μg/ml streptomycin. The medium of the cultured cells was removed, and the samples were treated with RIPA buffer and 1% SDS. The prepared supernatant was used for ELISA analysis to detect and analyze ADP-ribose."}, "[5]": {"system": "MDA-MB-231 cells", "assay": "Cell viability (MTT, photomicrographs) in MDA-MB-231 cells", "settings": "16 μM peptide, 24 hours", "protocol": "(§3) After culturing 3×10^3 MDA-MB-231 cells in a 96-well plate for 24 hours under conditions of 37° C. and 5% C02, the cells were either untreated or treated with the peptides of Examples 1 to 28 at a concentration of 16 μM, respectively. Then, the cells were cultured for 24 hours under conditions of 37° C. and 5% CO2, and 10 μl of 3-(4,5-dimethylthiazol-2-yl)-2,5-diphenyltetrazolium bromide reagent was added to each well, followed by reaction for 1 hour. After the reaction was completed, the reagent was removed, 200 μl of dimethyl sulfoxide was added to each well, and the absorbance was measured to confirm cell viability."}, "[6]": {"system": "Hep G2 cells", "assay": "ADP-ribose level by ELISA in Hep G2 cells", "settings": "0.2-32 μM peptide, 24 hours", "protocol": "as §2\n(§4) 5×10^5 Hep G2 cells were divided into a group not treated with the peptide of Example and a group treated with 0.2, 1, 2, 4, 8, 16, and 32 μM of the peptide of Example 4 (SEQ ID NO: 4), and cultured for 24 hours under conditions of 37° C. and 5% CO2 in EMEM medium supplemented with 10% FBS, 100 units/ml penicillin, and 100 μg/ml streptomycin. The medium of the cultured cells was removed, and the samples were treated with RIPA buffer and 1% SDS. The prepared supernatant was used for ELISA analysis to detect and analyze ADP-ribose."}, "[7]": {"system": "Hep G2 cells", "assay": "Cell viability (MTT, photomicrographs) in Hep G2 cells", "settings": "16 μM peptide, 24 hours", "protocol": "2-4. Change in viability in Hep G2 cells according to treatment with ADP-ribose binding peptide After culturing 3×10^3 Hep G2 cells in a 96-well plate for 24 hours under conditions of 37° C. and 5% CO2, the cells were either untreated or treated with the peptides of Examples 1 to 28 at a concentration of 16 μM, respectively. Then, the cells were cultured for 24 hours under conditions of 37° C. and 5% CO2, and 10 μl of 3-(4,5-dimethylthiazol-2-yl)-2,5-diphenyltetrazolium bromide reagent was added to each well, followed by reaction for 1 hour. After the reaction was completed, the reagent was removed, 200 μl of dimethyl sulfoxide was added to each well, and the absorbance was measured to confirm cell viability."}, "[8]": {"system": "CCD-18Co", "assay": "Cytotoxicity in normal cells CCD-18Co", "settings": "CCD-18Co human colon fibroblast, 25, 50 and 100 μM, 24, 48 or 72 hours; listed as SEQ ID NO: 7", "protocol": "(§5) As normal cells for testing, CCD-18Co, which is a human colon fibroblast, and HDPC, which is a human dermal papilla cell, were used. Further, the peptide of SEQ ID NO: 7 was used as a representative peptide of Examples of the present disclosure.\n(§6) First, 5×10^3 cells of each normal cell were inoculated into a 96-well plate and cultured in DMEM medium for 24 hours under conditions of 37° C. and 5% CO2. The respective wells were divided into a group untreated with the peptide and groups treated with the peptide of SEQ ID NO: 7 (25, 50, and 100 μM, respectively), and tested."}, "[9]": {"system": "HDPC", "assay": "Cytotoxicity in normal cells HDPC", "settings": "HDPC human dermal papilla cell, 25, 50 and 100 μM, 24, 48 or 72 hours; listed as SEQ ID NO: 7", "protocol": "as §5, §6"}, "[10]": {"system": "HCT116 cells", "assay": "ADP-ribose level by ELISA in HCT116 cells", "settings": "0.2-32 μM peptide, 24 hours", "protocol": "as §2\nas §4, with “5×10^5 HCT116” for “5×10^5 Hep G2”, “Example 6” for “Example 4”, “NO: 6),” for “NO: 4),”, “in McCoy's 5A” for “in EMEM”"}, "[11]": {"system": "HCT116 cells", "assay": "Cell viability (MTT, photomicrographs) in HCT116 cells", "settings": "16 μM peptide, 24 hours", "protocol": "as §3, with “HCT116” for “MDA-MB-231”, “CO2,” for “C02,”"}, "[12]": {"system": "Caki-1 cells", "assay": "ADP-ribose level by ELISA in Caki-1 cells", "settings": "0.2-32 μM peptide, 24 hours", "protocol": "as §2\nas §4, with “5×10^5 Caki-1” for “5×10^5 Hep G2”, “Example 7” for “Example 4”, “NO: 7),” for “NO: 4),”, “in McCoy's 5A” for “in EMEM”"}, "[13]": {"system": "Caki-1 cells", "assay": "Cell viability (MTT, photomicrographs) in Caki-1 cells", "settings": "16 μM peptide, 24 hours", "protocol": "as §3, with “Caki-1” for “MDA-MB-231”, “CO2,” for “C02,”"}, "[14]": {"system": "U-87MG cells", "assay": "Viability of U-87MG cells, bevacizumab alone or combined with peptides", "parameters": "dose or concentration left out as unconfirmed", "settings": "bevacizumab alone, 24 hours", "protocol": "as §1, with “culturing 3×10^3 U-87MG cells in” for “culturing 3×10^3 MDA-MB-231 cells in”, “treated with 18 mM of bevacizumab alone or” for “treated with 50 μM docetaxel alone or”, “of Examples 1 to 14” for “of Examples 15 to 28”, “1 to 14 at a” for “15 to 28 at a”, “5% CO2, and 10 μl” for “5% CO2, 10 μl”"}}, "note": "Entries after “also recorded” stand apart in the source; their conditions may differ. Ends that are not written are not given here."}
{"compound": "CC(=O)O[C@@]12CO[C@@H]1C[C@H](O)[C@@]1(C)C(=O)[C@H](O)C3=C(C)[C@@H](OC(=O)[C@H](O)[C@@H](NC(=O)OC(C)(C)C)c4ccccc4)C[C@@](O)([C@@H](OC(=O)c4ccccc4)[C@H]21)C3(C)C", "note": "[docetaxel]", "values": [{"measurement": "cancer cells survived", "setting": "[1]", "result": "about 52%"}]}
{"compound": "Nc1ccn([C@@H]2O[C@H](CO)[C@@H](O)C2(F)F)c(=O)n1", "note": "[gemcitabine]", "values": [{"measurement": "cancer cells survived", "setting": "[2]", "result": "about 50%"}]}
{"compound": "C=CC(=O)Nc1cc(Nc2nccc(-c3cn(C)c4ccccc34)n2)c(OC)cc1N(C)CCN(C)C", "note": "[osimertinib]", "values": [{"measurement": "viability at 0.001 µM", "setting": "[3]", "result": "~49", "unit": "%"}]}
{"compound": "FCYLIYFNSMSQMNRQTRRRRRLRR (ADP-ribose binding peptide) [Example 5]", "values": [{"measurement": "amount of increase in ADP-ribose (fold change) compared to the control group", "setting": "[4]", "result": "significant increase in the amount of ADP-ribose in a concentration-dependent manner"}, {"measurement": "cancer cell growth and survival", "setting": "[5]", "result": "inhibited from growing and killed"}]}
{"compound": "FLYVADLENMVQYRRNEHGRRRKIKR (ADP-ribose binding peptide) [Example 11]", "values": [{"measurement": "amount of increase in ADP-ribose (fold change) compared to the control group", "setting": "[6]", "result": "significant increase in the amount of ADP-ribose in a concentration-dependent manner"}, {"measurement": "cancer cell growth and survival", "setting": "[7]", "result": "inhibited from growing and killed"}]}
{"compound": "FSYKIDFAEMKQMNLTTGKQRLIKR [Example 7]", "values": [{"measurement": "cytotoxicity to normal cells versus untreated control", "setting": "[8]", "result": "no significant difference; also recorded: no toxicity was shown"}, {"measurement": "cytotoxicity to normal cells versus untreated control", "setting": "[9]", "result": "no significant difference; also recorded: no toxicity was shown"}]}
{"compound": "FSYVIDENTMGQINRQTQRQRRVRR [Example 6]", "values": [{"measurement": "amount of increase in ADP-ribose (fold change) compared to the control group", "setting": "[10]", "result": "significant increase in the amount of ADP-ribose in a concentration-dependent manner"}, {"measurement": "cancer cell growth and survival", "setting": "[11]", "result": "inhibited from growing and killed"}]}
{"compound": "GRYDVHLGERMRYAVYWDELASEVRR (ADP-ribose binding peptide) [Example 13]", "values": [{"measurement": "amount of increase in ADP-ribose (fold change) compared to the control group", "setting": "[10]", "result": "significant increase in the amount of ADP-ribose in a concentration-dependent manner"}, {"measurement": "cancer cell growth and survival", "setting": "[11]", "result": "inhibited from growing and killed"}]}
{"compound": "RHYTVNLNTYTATDTKGHSLSVQR (ADP-ribose binding peptide) [Example 12]", "values": [{"measurement": "amount of increase in ADP-ribose (fold change) compared to the control group", "setting": "[4]", "result": "significant increase in the amount of ADP-ribose in a concentration-dependent manner"}, {"measurement": "cancer cell growth and survival", "setting": "[5]", "result": "inhibited from growing and killed"}]}
{"compound": "RVYTIDENSMQQINEDTGTARAIQR (RVYTIDFNSMQQINEDTGTARAIQR; ADP-ribose binding peptide) [Example 4]", "values": [{"measurement": "amount of increase in ADP-ribose (fold change) compared to the control group", "setting": "[6]", "result": "significant increase in the amount of ADP-ribose in a concentration-dependent manner"}, {"measurement": "cancer cell growth and survival", "setting": "[7]", "result": "inhibited from growing and killed"}]}
{"compound": "TAYEASVCDYLEQQVARGN (ADP-ribose binding peptide) [Example 14]", "values": [{"measurement": "amount of increase in ADP-ribose (fold change) compared to the control group", "setting": "[12]", "result": "significant increase in the amount of ADP-ribose in a concentration-dependent manner"}, {"measurement": "cancer cell growth and survival", "setting": "[13]", "result": "inhibited from growing and killed"}]}
{"compound": "bevacizumab", "values": [{"measurement": "viable cancer cells", "setting": "[14]", "result": "about 49%"}]}
